Assay [1] has as its target T1, 5-lipoxygenase (Homo sapiens, UniProt P09917).
T1 sequence (P09917 1-674): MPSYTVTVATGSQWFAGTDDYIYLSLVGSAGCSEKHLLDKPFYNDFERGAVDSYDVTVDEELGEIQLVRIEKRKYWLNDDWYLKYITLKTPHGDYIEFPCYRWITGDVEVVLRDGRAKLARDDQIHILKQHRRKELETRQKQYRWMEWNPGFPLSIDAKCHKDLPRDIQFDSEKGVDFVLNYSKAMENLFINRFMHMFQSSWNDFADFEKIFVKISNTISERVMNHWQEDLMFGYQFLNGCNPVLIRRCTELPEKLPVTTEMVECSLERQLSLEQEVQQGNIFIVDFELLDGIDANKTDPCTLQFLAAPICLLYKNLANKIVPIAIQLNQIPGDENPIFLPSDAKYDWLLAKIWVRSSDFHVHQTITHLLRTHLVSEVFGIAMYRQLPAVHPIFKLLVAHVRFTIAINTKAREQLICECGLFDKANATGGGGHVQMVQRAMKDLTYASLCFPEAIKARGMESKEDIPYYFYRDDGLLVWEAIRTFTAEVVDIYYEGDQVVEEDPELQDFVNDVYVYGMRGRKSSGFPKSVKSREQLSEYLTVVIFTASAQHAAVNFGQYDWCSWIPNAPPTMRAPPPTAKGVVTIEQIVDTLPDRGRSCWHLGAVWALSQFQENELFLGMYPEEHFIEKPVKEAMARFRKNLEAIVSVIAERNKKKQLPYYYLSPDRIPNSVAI
The assay is described as follows: 5-Lipoxygenase Enzyme Assay (colorimetric, ferric oxidation of xylenol orange). It is filed as biochemical. More on the design: purchased Cayman 60402. How it is done:
This procedure was used for measuring the enzymatic activity of human recombinant 5-lipoxygenase using a colorimetric method based on the ferric oxidation of xylenol orange.
(§1) The test compound and/or vehicle was added to 0.5 μL 5-lipoxygenase in 50 mM Tris-HCl buffer, pH 7.4. The reaction was initiated by addition of 70 μM arachidonic acid in Tris-HCl buffer, pH 7.4, and terminated after a 10 minute incubation at room temperature by addition of FOX reagent (25 mM sulphuric acid, 100 μM xylenol orange, 100 μM iron (II) sulphate, methanol:water 9:1). The yellow color of acidified xylenol orange was converted to a blue color by the lipid hydroperoxide-mediated oxidation of Fe^2+ ions and the interaction of the resulting Fe^3+ ions with the dye. The complex was allowed to form during a 1 hour incubation at room temperature with shaking. Absorbance of the Fe^3+ complex was then measured at 620 nm using a spectrophotometer. Negative controls contained enzyme during the incubation step but substrate was not added until after the FOX reagent.

In assay [2] the test system is NIDDM male mice (C57BLKS/J-m+/+Lepr db). As to the kind of experiment: Therapeutic study: serum glucose levels in diabetic animals. It is filed as in vivo. The following applies: i.p. twice daily. How it is done:
In vivo evaluation of the role of dual inhibitor of both 5-LO and 12/15-LO enzymes in the reduction of serum glucose levels and insulin was performed in C57BLKs/J-m+/+Lepr db mice, a non-insulin dependent diabetic mellitus (NIDDM) model, as described in Examples. […] […].
Non-insulin dependent diabetic mellitus (NIDDM) male mice (C57BLKS/J-m+/+Lepr db), weighing 45±5 g (10 weeks of age) and provided by Institute for Animal Reproduction (IAR, Japan), were used.
Groups of 10 non-insulin dependent diabetic mellitus (NIDDM) male mice (C57BLKS/J-m+/+Lepr db), weighing 45±5 g and 10-weeks-old, were used. The animals were housed in Individually Ventilated Cages Racks (IVC Racks) throughout the experiment; all animals were allowed free access to sterilized Lab chow and sterilized distilled water. The test compounds, as well as vehicle (0.5% DMSO/2% Tween 80/0.9% NaCl), were each administered intraperitoneally twice daily (1st at 9:00 A.M. and 2nd at 16:00 P.M.) for a total of 14 consecutive days. Using blood samples collected from the orbital sinus, pre-treatment serum glucose and insulin levels were determined 24 hours prior to the first dosing on day 0. Post-treatment glucose and insulin levels were detected 4 hours after dosing on days 11 and 14. Also, serum glucose and insulin levels were obtained before and 15, 30 and 90 minutes after glucose loading (orally glucose tolerance test (OGTT) 2 g/kg), 4 hours following the dosing on day 11. Serum glucose and Insulin (on days 0, 11 and 14) levels were determined by enzymatic (Mutaratase-GOD) and ELISA (mouse insulin assay kit) methods, respectively. The percentage of post-treatment relative to pre-treatment group values obtained on days 11 and 14 were analyzed using One Way ANOVA followed by Dunnett's test for comparison between vehicle and treated groups. […]
For effect on OGTT, AUC (area under the curve) for the serum glucose at times 0, 15, 30, and 90 minutes after OGTT was plotted for each test compound and its respective vehicle control. […] Body weight and food intake were measured daily through the course of the study.

Assay [3] deals with T2, porcine leukocyte 12/15-lipoxygenase (Sus scrofa, UniProt P16469).
T2 construct: purchased Cayman 60300
T2 sequence (P16469 1-663): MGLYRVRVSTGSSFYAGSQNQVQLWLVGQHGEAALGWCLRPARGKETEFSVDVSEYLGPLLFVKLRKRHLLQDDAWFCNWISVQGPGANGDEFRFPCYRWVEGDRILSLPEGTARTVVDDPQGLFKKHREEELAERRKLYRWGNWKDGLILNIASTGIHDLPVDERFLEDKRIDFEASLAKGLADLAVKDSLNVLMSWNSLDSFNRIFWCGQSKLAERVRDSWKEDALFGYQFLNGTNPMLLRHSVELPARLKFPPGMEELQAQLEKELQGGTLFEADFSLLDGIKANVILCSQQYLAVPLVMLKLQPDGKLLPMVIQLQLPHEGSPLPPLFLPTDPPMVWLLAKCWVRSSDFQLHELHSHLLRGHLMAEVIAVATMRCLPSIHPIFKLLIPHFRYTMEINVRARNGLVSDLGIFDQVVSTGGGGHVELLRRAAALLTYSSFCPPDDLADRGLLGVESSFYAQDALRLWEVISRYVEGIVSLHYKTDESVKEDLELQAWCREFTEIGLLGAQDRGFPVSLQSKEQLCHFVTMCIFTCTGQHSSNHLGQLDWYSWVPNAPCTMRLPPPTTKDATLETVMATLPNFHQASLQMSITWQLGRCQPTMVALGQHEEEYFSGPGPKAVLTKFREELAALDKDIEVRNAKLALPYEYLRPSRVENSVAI
As to the kind of experiment: 12/15-Lipoxygenase Enzyme Assay (colorimetric, ferric oxidation of xylenol orange). Type of assay: biochemical. How it is done:
This procedure was used for measuring the enzymatic activity of porcine leukocyte 12/15-lipoxygenase using a colorimetric method based on the ferric oxidation of xylenol orange.
as §1, with “vehicle were” for “vehicle was”, “to 1.3” for “to 0.5”, “μL 12/15-lipoxygenase” for “μL 5-lipoxygenase”, “spectrophotometer.” for “spectrophotometer. Negative controls contained enzyme during the incubation step but substrate was not added until after the FOX reagent.”
Negative controls contained enzyme during the incubation step but substrate was not added until after the FOX reagent.

Assay [4] has as its target T1, 5-lipoxygenase. The conditions noted are these: background; cited from earlier work.
[5] abbreviates: read-out: classification as dual inhibitor: 5-LO enzyme assay IC50.
The mark [6] stands for this setting: read-out: classification as dual inhibitor: 12/15-LO enzyme assay IC50.

Molecules are shown by their SMILES. Like-named read-outs stand apart in the source and are kept apart here. Some results are limits rather than exact numbers.

Take `Cc1c(O)cc2c(c1C)N(c1ccc(O)cc1)C(C)CC2` (centres unmarked) [Compound E, 1-(4-hydroxyphenyl)-2,7,8-trimethyl-1,2,3,4-tetrahydroquinolin-6-ol]: the IC50 (at 5-lipoxygenase [1] (setting [5]); in assay [3] (setting [6])) was less than 5 µM in each case. For the same compound, in assay [2] (15 mg/kg, p<0.05), the “lowering of serum glucose levels compared to respective control (FIG. 2)” value is listed as “significant lowering”.
As for `CC(Cc1ccc(O)c(O)c1)C(C)Cc1ccc(O)c(O)c1` (centres unmarked) [Compound A, Nordihydroguaiaretic acid (NDGA)], the “5-lipoxygenase inhibition / specificity as reported in the literature” value on 5-lipoxygenase [4] is “inhibitor”.
Turning to `Cc1c(O)c(C)c2c(c1F)OC(C)(C)CC2` [Compound D, 8-fluoro-2,2,5,7-tetramethylchroman-6-ol], the IC50 (on 5-lipoxygenase [1] (setting [5]); on 5-lipoxygenase [1] (read-out: in vitro IC50 value in a 5-LO enzyme assay); in assay [3] (setting [6]); in assay [3] (read-out: in vitro IC50 value in a 12/15-LO enzyme assay)) was less than 5 µM in each case. In assay [2], the “reduction in baseline elevated blood glucose level in comparison to the vehicle group” value was found to be 13%.
Take `CC(c1cc2ccccc2s1)N(O)C(N)=O` (centres unmarked) [C, Zileuton, reference compound]: in assay [2] (30 mg/kg, p<0.01), the “reduction in serum glucose relative to the respective vehicle control group (FIG. 2)” value is listed as “reduction in serum glucose”. In addition, the “5-lipoxygenase inhibition / specificity as reported in the literature” value on 5-lipoxygenase [4] is recorded as “specific”.

(Values after patent publication US20060106014A1, “Methods for treating diabetes” (priority 2004, published 2006).)
